Data reported in article PMC10005075, “Study on Absorption, Distribution and Excretion of a New Candidate Compound XYY-CP1106 against Alzheimer’s Disease in Rats by LC-MS/MS” (Molecules, 2023).
“Also recorded” adds a separate entry of the source. Read-outs that look alike come from different tables or passages of the source.

Columns and labels:
[1] = Plasma pharmacokinetic study after oral and tail vein administration; format: in vivo, Sprague-Dawley (SD) rats; parameters: clearance: unit not given here; details: rats; for AUC(0-t): read-out: AUC0–24
Description: Non-compartmental calculations were performed using the PK Solver plug-in (China Pharmaceutical University, Nanjing, China) to estimate the main pharmacokinetic parameters. All values were expressed as the mean ± standard deviation.
Amounts of 100 μL plasma, 100 μL IS working solution (1000 ng/mL), 100 μL aqueous solution containing 0.2% formic acid and 700 μL ice methanol for protein precipitation were successively added into the 1.5 mL centrifuge tube, and it was vortexed for 30 s. Then, it was centrifuged at 13,000 rpm for 10 min at 4 °C, and the upper clarifying solution was extracted and placed in a new 1.5 mL tube and was centrifuged again under the same conditions. Five microliters of the sample were measured and injected into the LC-MS/MS system for analysis.
For oral administration, six SD rats were fed with freely available food and water and fasted with free access to water for 12 h before drug administration. The rats in each group were weighed and recorded; then, the oral dose was 15 mg/kg. The average weight of rats was 200 ± 30 g. At 0.083, 0.25, 0.5, 0.75, 1, 2, 4, 6, 8, 12 and 24 h after oral administration, 0.3 mL of blood samples were collected from the suborbital vein and put into a 1.5 mL heparin sodium tube. The collected plasma sample was centrifuged at 4 °C for 10 min at 3500 revolutions, and 100 μL of supernatant was taken and stored at −20 °C for future use.
For tail vein injection, six SD rats were weighed and recorded; then, XYY-CP1106 (0.384 mg/mL, 1.92 mg/kg) filtered by a 0.22 µm filter membrane was administered via tail vein injection. An amount of 0.3 mL of blood samples were collected from the suborbital vein into heparin sodium tubes at 0.083, 0.25, 0.5, 0.75, 1, 2, 4, 6, 8, 12 and 24 h after caudal intravenous administration. The collected plasma samples were treated in the same way as oral administration.
The oral absolute bioavailability (F) in rats was calculated according to the following equation:F = (AUCoral(0–∞) × Doseiv)/(AUCiv(0–∞) × Doseoral) × 100%,(1)

[2] = Tissue distribution study after oral administration; format: in vivo, Sprague-Dawley (SD) rats; details: rats, oral 15 mg/kg
Description: The tissue sample was weighed and cut into pieces. Normal saline was added to brain tissue at the ration of 1:1 (g: mL) and other tissues at the ration of 1:3 (g: mL). The tissue homogenate was symmetrically placed in a tissue homogenizer to obtain tissue homogenate.
Amount of 0.5 mL of tissue homogenate and 1.5 mL of acetonitrile were added into a 5 mL centrifuge tube for protein precipitation by vortex, and 1 mL of vortex solution was added into a 1.5 mL centrifuge tube and centrifuged at 13,000 revolutions at for 10 min 4 °C. Then, 900 μL supernatant and 100 μL IS working solution were added into a 1.5 mL centrifuge tube to vortex for 30 s. It was centrifuged twice under the same conditions; then, the supernatant (5 μL) was injected into the LC-MS/MS system.
Thirty SD rats were randomly divided into 5 groups (n = 6), fed with freely available food and water and fasted with free access to water for 12 h before drug administration. All rats were weighed and recorded. The 5 groups of rats were given a single oral dose (15 mg/kg) of XYY-CP1106 (1.0 mg/mL) and sacrificed with cervical dislocation at 0.25, 1, 2, 4 and 8 h, respectively. The heart, liver, spleen, lungs, kidneys and brain of the rats were quickly removed, and the blood was carefully rinsed off with physiological saline (0.9%). The normal saline on the surface of all tissue samples was dried with filter paper then stored in a refrigerator at −80 °C.

[3] = Excretory study (urine and feces) after oral administration; format: in vivo; details: rats
Description: After the collected feces were dried at room temperature, a pestle and mortar were used to uniformly crush the feces collected at each time slot. Then, 0.2 g of ground feces were accurately weighed into a 5.0 mL centrifuge tube, 4 mL of methanol solution was added and then it was put into the ultrasonic instrument for ultrasonic extraction for 4 h. Then, 100 μL of feces samples were added into a 1.5 mL centrifuge tube. Next, it was treated the same as the plasma samples.
Urine samples were collected and processed directly. An aliquot of 100 µL of urine sample was taken and processed in the same manner as the plasma samples.
Ten rats were fed with freely available food and water and fasted with free access to water for 12 h before drug administration. They were given a single dose of XYY-CP1106 (15 mg/kg, 1.0 mg/mL) and then put into metabolic cages. Feces and urine were collected at 0–4, 4–8, 8–12, 12–24, 24–36, 36–48, 48–60, 60–72, 72–84 and 84–96 time slots, respectively. The feces collected at each time slot were air-dried to record their weight and stored in a refrigerator at −20 °C before use. The urine volume was recorded at each time slot and stored in a refrigerator at −20 °C before use.

[4] = Solubility in water; format: physicochemical
Description: A certain amount of XYY-CP1106 was weighed and dissolved completely in methanol. β-cyclodextrin aqueous solution was added to make it 50% methanol and 30% β-cyclodextrin solution. Then, it was placed in ultrasound for 4 h under an ultrasonic bath after vortex. Next, it was freeze-dried for 2 days; then, it was redissolved in PBS solution to the final concentration of 1.0 mg/mL.

[5] = Stability in plasma, tissues, feces and urine under storage conditions; parameters: species or system rat; details: automatic sampler 24 h; three freeze–thaw cycles −20 °C to room temperature; −20 °C for 30 days
Description: The stability of XYY-CP1106 standard in plasma, tissues, feces and urine biological samples under different storage conditions was analyzed, including the stability of samples stored at room temperature for 24 h in an automatic sampler, the freeze–thaw stability after three cycles (−20 °C to room temperature was defined as a cycle), and −20 °C for the last 30 days. When the deviation from the standard value was within 15% (low concentration was within 20%), the sample was considered stable. The concentration of standard substance in plasma was 10 and 160 ng/mL. The standard concentration in tissues, feces and urine was 10 and 800 ng/mL.

[6] = parameters: method as in PMID 31325784; details: chelating ability for Fe^3+; cited from earlier work
[7] = system: MAO-B; parameters: method as in PMID 31325784; details: cited from earlier work
[8] = system: scopolamine-induced AD mouse model; parameters: method as in PMID 31325784; details: scopolamine-induced AD mice, intraperitoneal injection 10 mg/kg; cited from earlier work
[9] = Sprague-Dawley, rat, plasma, iv, I.V (tail vein) 1.92 mg/kg, n = 6
[10] = Sprague-Dawley, rat, plasma, po, P.O 15 mg/kg, n = 6

SMILES: Cc1c(O)c(=O)ccn1Cc1cc2ccc(OCc3cccc(F)c3)cc2oc1=O [XYY-CP1106]
- Tmax ([1]; Sprague-Dawley, rat, plasma, 15 mg/kg, oral administration, read-out: time to maximum plasma concentration (converted)): 0.75 h
- AUC(0-inf) [1, 9]: 599 ± 31.8 ng·h/mL
- Cmax [1, 9]: 691 ± 120 ng/mL
- clearance [1, 9]: 0.0268
- half-life [1, 9]: 3.5 ± 2.24 h
- AUC(0-t) [1, 9]: 540 ± 43.7 ng·h/mL
- Tmax ([1]; Sprague-Dawley, rat, plasma, iv, I.V (tail vein) 1.92 mg/kg, n = 6, read-out: Tmax): 0.083 h
- half-life ([1]; Sprague-Dawley, rat, plasma, oral, P.O 15 mg/kg, n = 6): 8.26 to 10.1 h
- Tmax ([1]; Sprague-Dawley, rat, plasma, oral, P.O 15 mg/kg, n = 6, read-out: Tmax): 0.57 to 0.93 h
- bioavailability ([1]; Sprague-Dawley, rat, plasma, po, P.O 15 mg/kg vs I.V 1.92 mg/kg, from AUC0–∞, read-out: absolute oral bioavailability (F)): 10.7 ± 1.72%
- AUC(0-inf) [1, 10]: 503 ± 77.7 ng·h/mL
- Cmax [1, 10]: 153 ± 15.9 ng/mL
- half-life [1, 10]: 9.16 ± 0.9 h
- AUC(0-t) [1, 10]: 428 ± 66.1 ng·h/mL
- V ([1]; I.V (tail vein) 1.92 mg/kg, n = 6): 0.00403 ± 0.0018 L/kg
- V ([1]; P.O 15 mg/kg, n = 6): 0.4017 ± 0.06959 L/kg
- concentration at 2 h ([2]; Sprague-Dawley, rat, brain, 2 h after administration): 501 ± 260 ng/g
- blood–brain barrier penetration ([2]; detected in brain tissue, 15 mg/kg): could pass through the blood–brain barrier; also recorded: could penetrate the blood–brain barrier; also recorded: penetrating the BBB
- main tissues of distribution ([2]; heart, liver, spleen, lung, kidney, brain, 0.25-8 h): mainly distributed in the liver and kidneys
- time of maximum excretion rate in feces ([3]; 15 mg/kg by gavage): 8 to 12 h
- time of maximum excretion rate in urine ([3]; 15 mg/kg by gavage): 4 to 12 h
- excretion through urine, % of the dose ([3]; 15 mg/kg by gavage, within 24 h): 0.01 ± 0.00%
- excretion through feces, % of the dose ([3]; 15 mg/kg by gavage, within 72 h): 31.14 ± 0.05%
- average cumulative excretion through feces ([3]; oral 15 mg/kg, prototype drug): 0.94 ± 0.14 mg
- water solubility [4]: low water solubility; also recorded: almost insoluble in water
- stability in biological matrices [5]: stable
- pFe^3+ [6]: 18.04
- IC50 [7]: 14.7 nM
- effect on behavioral and cognitive impairment (water maze) [8]: could significantly alleviate the behavioral and cognitive impairment of mice
